In general, IC50 refers to the point on the concentration scale where inhibition reaches its midpoint.

A short description of data set [1]: Toxicity against BALB/c mouse macrophage by MTT assay. The following applies: mouse macrophages. Type of data set: cell-based.
The nature of data set [2]: Selectivity index, ratio of IC50 for BALB/c macrophages to IC50 for Leishmania amazonensis (MHOM/BR/76/LTB-012).
Data set [3] deals with Leishmania amazonensis. In words: Antileishmanial activity against Leishmania amazonensis MHOM/BR/76/LTB-012 axenic amastigotes by MTT assay. On the technique in general: Tetrazolium dyes change colour on reduction, which living cells bring about.
For the next data set, the system named is Leishmania braziliensis. The data set is described as follows: Antileishmanial activity against Leishmania braziliensis MHOM/PE/PER006 promastigotes infected in mouse macrophage by MTT assay. Type of data set: functional, organism-based.
In the next data set the test system is Leishmania peruviana. In words: Antileishmanial activity against Leishmania peruviana MHOM/PE/LCA08 promastigotes infected in mouse macrophage by MTT assay. Type of data set: functional, organism-based.
In data set [4] the test system is Leishmania amazonensis. The data set is described as follows: Antileishmanial activity against Leishmania amazonensis LMA CL1 amastigotes infected in mouse macrophage by MTT assay. Format: functional, organism-based.
For data set [5], the system named is Leishmania amazonensis. The data set is described as follows: Antileishmanial activity against Leishmania amazonensis LV79 MPRO/BR/72/M1841 infected in BALB/c mouse assessed as lesion diameter at 5 mg/kg after 4 weeks. Type of data set: functional.
For data set [6], the system named is Leishmania amazonensis. In words: Antileishmanial activity against Leishmania amazonensis LV79 MPRO/BR/72/M1841 infected in BALB/c mouse assessed as reduction in parasite burden at 5 mg/kg after 6 weeks. Format: functional. Details: scale not given: the % may be the effect or the level left.
Data set [7] has as its system Leishmania amazonensis. In words: Antileishmanial activity against Leishmania amazonensis LV79 MPRO/BR/72/M1841 infected in BALB/c mouse assessed as lesion diameter at 33 mg/kg after 4 weeks. Details: dose 33 mg/kg. Type of data set: functional, organism-based.
Data set [8] concerns Leishmania amazonensis. The data set is described as follows: Antileishmanial activity against Leishmania amazonensis LV79 MPRO/BR/72/M1841 infected in BALB/c mouse assessed as reduction in parasite burden at 33 mg/kg after 4 weeks. Type of data set: functional, organism-based. Details: dose 33 mg/kg; scale not given: the % may be the effect or the level left.
Data set [9] concerns Leishmania amazonensis. In words: Antileishmanial activity against Leishmania amazonensis LV79 MPRO/BR/72/M1841 infected in BALB/c mouse assessed as reduction in parasite burden at 33 mg/kg after 7 weeks. Details: dose 33 mg/kg; scale not given: the % may be the effect or the level left. Type of data set: functional, organism-based.
Data set [10] concerns Leishmania amazonensis. In words: Antileishmanial activity against Leishmania amazonensis LV79 MPRO/BR/72/M1841 infected in BALB/c mouse assessed as reduction in parasite burden at 5 mg/kg after 4 weeks. Details: scale not given: the % may be the effect or the level left. Format: functional.

With `C=CCOc1cc(OC)c(C(=O)/C=C/c2cccc(OC)c2)c(OCC=C)c1`, the results for the IC50 (in data set [1]; in the data set on Leishmania amazonensis [3]) were 13.1 µM and 8.7 µM, respectively. Further, the “Ratio IC50” value in data set [2] turned out to be 1.5.

With `COc1cc(O)cc(O)c1C(=O)/C=C/c1ccc(O)cc1` [HELICHRYSETIN], the figures for the IC50 (in data set [1]; in the data set on Leishmania amazonensis [3]) were 21.7 µM and 15.7 µM, respectively. Also, the “Ratio IC50” value in [2] turned out to be 1.4.

As for `COc1cc(/C=C/C(=O)c2c(O)cc(O)cc2OC)cc(OC)c1OC`, the IC50 in the data set with Leishmania amazonensis [3] was found to be 9.7 µM.

On to `COc1ccc(/C=C/C(=O)c2c(O)cc(O)cc2OC)cc1`, for which the IC50 with Leishmania braziliensis came out at 7.6 µM; in the data set with Leishmania peruviana, 23 µM; in data set [1], 166 µM; in the data set with Leishmania amazonensis [4], 14.3 µM; in the data set with Leishmania amazonensis [3], 10 µM. Further, the “Ratio IC50” value in [2] is on record as 16.6.

Consider `COc1cc(O)cc(O)c1C(=O)/C=C/c1ccco1`, for which the IC50 came to 30.4 µM in the data set with Leishmania braziliensis; 34.2 µM in the data set on Leishmania peruviana; 384 µM in [1]; 16.9 µM with Leishmania amazonensis [4]; 4.6 µM with Leishmania amazonensis [3]. For the same compound, the “Ratio IC50” value in [2] amounted to 83.5.

On to `C=CCOc1cc(OC)c(C(=O)/C=C/c2ccc3c(c2)OCO3)c(OCC=C)c1`, for which inhibition in the data set on Leishmania amazonensis [3] was half-maximal at 6.6 µM (IC50).

Turning to `C=CCOc1cc(OC)c(C(=O)/C=C/c2ccc(Cl)cc2)c(OCC=C)c1`, the IC50 in [1] stood at 13 µM; in the data set on Leishmania amazonensis [3] it was 9.4 µM. Further, in [2], the “Ratio IC50” value came out at 1.4.

`COc1cc(O)cc(O)c1C(=O)/C=C/C=C/c1ccccc1` yielded an IC50 in the data set on Leishmania amazonensis [3] of 52.6 µM.

`COc1cccc(/C=C/C(=O)c2c(O)cc(O)cc2OC)c1`: the IC50 came to 17.6 µM in [1] and 12 µM with Leishmania amazonensis [3]. The “Ratio IC50” value in [2] is 1.5.

In the data set on Leishmania amazonensis [3], `C=CCOc1cc(OC)c(C(=O)/C=C/c2ccncc2)c(OCC=C)c1` showed an IC50 of 0.6 µM.

For `COc1cc(O)cc(O)c1C(=O)/C=C/c1ccc(C)cc1`, the results for the IC50 (in data set [1]; with Leishmania amazonensis [3]) were 16.5 µM and 7.4 µM, respectively. Also, the “Ratio IC50” value in data set [2] was determined as 2.2.

Regarding `COc1cc(O)cc(O)c1C(=O)/C=C/c1ccccc1Br`, the IC50 in [1] stood at 14.6 µM; in the data set on Leishmania amazonensis [3], 10.6 µM. In addition, in data set [2], the “Ratio IC50” value was determined as 1.4.

Consider `C=CCOc1cc(OC)c(C(=O)/C=C/c2ccccc2Br)c(OCC=C)c1`, for which the IC50 was found to be 5.4 µM in [1] and 7.9 µM in the data set with Leishmania amazonensis [3]. In addition, the “Ratio IC50” value in [2] is reported as 0.7.

Take `COc1cc(O)cc(O)c1C(=O)/C=C/c1ccc(C(F)(F)F)cc1`: the IC50 came to 17.1 µM in [1] and 8.6 µM in the data set on Leishmania amazonensis [3]. The “Ratio IC50” value in data set [2] is on record as 2.

Consider `C=CCOc1cc(OC)c(C(=O)/C=C/c2ccccc2F)c(OCC=C)c1`, for which the IC50 in data set [1] was determined as 13.3 µM; with Leishmania amazonensis [3], 9.5 µM. For the same compound, the “Ratio IC50” value in [2] is listed as 1.4.

Take `C=CCOc1cc(OC)c(C(=O)/C=C/c2ccc(O)cc2)c(OCC=C)c1`: the IC50 in the data set on Leishmania amazonensis [3] came out at 85.2 µM.

Turning to `C=CCOc1cc(OC)c(C(=O)/C=C/c2cc(OC)c(OC)c(OC)c2)c(OCC=C)c1`, the IC50 in data set [1] turned out to be 12 µM; with Leishmania amazonensis [3], 8.2 µM. The “Ratio IC50” value in data set [2] came to 1.5.

On to `C=CCOc1cc(OC)c(C(=O)/C=C/c2ccc[nH]2)c(OCC=C)c1`, for which half-maximal inhibition in the data set on Leishmania amazonensis [3] (IC50) was put at 94.3 µM.

Take `C=CCOc1cc(OC)c(C(=O)/C=C/c2ccccn2)c(OCC=C)c1`: the IC50 in the data set on Leishmania braziliensis was 1.4 µM; in the data set on Leishmania peruviana, 4 µM; in [1] it was 12.5 µM; in the data set on Leishmania amazonensis [4] it was 0.9 µM; with Leishmania amazonensis [3], 1.1 µM. In data set [2], the “Ratio IC50” value is given as 11.4. In addition, the results for the Activity in the data set with Leishmania amazonensis [5] and in the data set with Leishmania amazonensis [6] were 3 mm and 25%, respectively.

As for `COc1ccc(/C=C/C(=O)c2c(O)cc(OC)cc2OC)cc1` [FLAVOKAWAIN A], in the data set with Leishmania amazonensis [3], the IC50 came to 17.2 µM.

For `COc1ccc(/C=C/C(=O)c2c(O)cc(O)cc2OC)c(OC)c1`, the values for the IC50 (in [1]; in the data set on Leishmania amazonensis [4]; with Leishmania amazonensis [3]) were over 300 µM, 28.5 µM and 6.4 µM, respectively. Further, the “Ratio IC50” value in data set [2] is over 50.

Compound `COc1cc(/C=C/C(=O)c2c(O)cc(O)cc2OC)ccc1O` yielded an IC50 in the data set on Leishmania amazonensis [3] of 14.9 µM.

In the data set on Leishmania amazonensis [3], `C=CCOc1cc(OC)c(C(=O)/C=C/c2ccc(C)cc2)c(OCC=C)c1` came in with an IC50 of 79.8 µM.

For `COc1cc(O)cc(O)c1C(=O)/C=C/c1ccc(Cl)cc1`, the IC50 is 19 µM in data set [1] and 11.2 µM with Leishmania amazonensis [3]. The “Ratio IC50” value in [2] was found to be 1.7.

Turning to `C[C@@H]1[C@H](O)[C@@H](C)/C=C/C=C/C=C/C=C/C=C/C=C/C=C/[C@H](O[C@@H]2O[C@H](C)[C@@H](O)[C@H](N)[C@@H]2O)C[C@@H]2O[C@](O)(C[C@@H](O)C[C@@H](O)[C@H](O)CC[C@@H](O)C[C@@H](O)CC(=O)O[C@H]1C)C[C@H](O)[C@H]2C(=O)O` [AMPHOTERICIN B], the IC50 stood at 0.1 µM in the data set on Leishmania braziliensis; 0.1 µM in the data set with Leishmania peruviana; 5.3 µM in data set [1]; 0.4 µM in the data set on Leishmania amazonensis [4]; 0.1 µM in the data set with Leishmania amazonensis [3]. In addition, the “Ratio IC50” value in data set [2] is 76.

Regarding MEGLUMINE ANTIMONATE, the Activity worked out at 2.1 mm in the data set with Leishmania amazonensis [7], 100% with Leishmania amazonensis [8] and 100% in the data set on Leishmania amazonensis [9].

For `COc1cc(O)cc(O)c1C(=O)/C=C/c1ccccc1F`, the figures for the IC50 (in [1]; with Leishmania amazonensis [3]) were 16 µM and 11.8 µM, respectively. For the same compound, the “Ratio IC50” value in [2] is given as 1.4.

In turn, `C=CCOc1cc(OC)c(C(=O)/C=C/c2ccc(O)c(OC)c2)c(OCC=C)c1` gave an IC50 with Leishmania amazonensis [3] of 107 µM.

With `C=CCOc1cc(OC)c(C(=O)/C=C/c2ccc(OC)cc2)c(OCC=C)c1`, the IC50 in [1] worked out at 18.7 µM; with Leishmania amazonensis [3] it was 5.5 µM. Further, the “Ratio IC50” value in data set [2] came out at 3.4.

For the compound `C=CCOc1cc(OC)c(C(=O)/C=C/c2ccc(F)cc2)c(OCC=C)c1`, the IC50 in data set [1] turned out to be 13.8 µM; in the data set on Leishmania amazonensis [3] it was 9.5 µM. In addition, in data set [2], the “Ratio IC50” value is 1.5.

Turning to `COc1cc(O)cc(O)c1C(=O)/C=C/c1ccc(F)cc1`, the figures for the IC50 (in [1]; with Leishmania amazonensis [3]) were 28.8 µM and 11.8 µM, respectively. Also, the “Ratio IC50” value in [2] is on record as 2.4.

`C=CCOc1cc(OC)c(C(=O)/C=C/c2ccc([N+](=O)[O-])cc2)c(OCC=C)c1`: the IC50 came to 13.2 µM in data set [1] and 8.3 µM in the data set on Leishmania amazonensis [3]. Further, in data set [2], the “Ratio IC50” value stood at 1.6.

In the data set with Leishmania amazonensis [3], `C=CCOc1cc(OC)c(C(=O)/C=C/C=C/c2ccccc2)c(OCC=C)c1` gave an IC50 of 75.2 µM.

With `C=CCOc1cc(/C=C/C(=O)c2c(O)cc(O)cc2OC)cc(OCC=C)c1Br`, the IC50 with Leishmania braziliensis worked out at 14.4 µM; in data set [1], 11.5 µM; with Leishmania amazonensis [4], 4.1 µM; in the data set on Leishmania amazonensis [3], 1.1 µM. For the same compound, in data set [2], the “Ratio IC50” value was found to be 10.5. The Activity came to 3.1 mm with Leishmania amazonensis [5], 9% in the data set with Leishmania amazonensis [10] and 8% in the data set with Leishmania amazonensis [6].

Regarding `COc1cc(O)cc(O)c1C(=O)/C=C/c1ccc2c(c1)OCO2`, the IC50 in the data set on Leishmania braziliensis was found to be 8.6 µM; in the data set on Leishmania peruviana, 19.7 µM; in [1], 157 µM; in the data set with Leishmania amazonensis [4], 16.6 µM; in the data set with Leishmania amazonensis [3], 4.1 µM. Further, in data set [2], the “Ratio IC50” value worked out at 38.3.

The values are drawn from ChEMBL document CHEMBL1153187 (Bioorg Med Chem Lett, 2010).
